From ChEMBL document CHEMBL4507274 (2021)

Tests used:
[1] = molecular target: 5'-AMP-activated protein kinase catalytic subunit alpha-2 (Homo sapiens) (UniProt P54646); conditions: Compound concentration 100.0 nM
[2] = molecular target: Peripheral plasma membrane protein CASK (Homo sapiens) (UniProt O14936); conditions: Compound concentration 100.0 nM
[3] = molecular target: Cyclin-dependent kinase 5 (Homo sapiens) (UniProt Q00535); conditions: Compound concentration 100.0 nM
[4] = molecular target: Cyclin-dependent kinase 9 (Homo sapiens) (UniProt P50750); conditions: Compound concentration 100.0 nM
[5] = molecular target: Cyclin-dependent kinase-like 1 (Homo sapiens) (UniProt Q00532); conditions: Compound concentration 100.0 nM
[6] = molecular target: Dual specificity protein kinase CLK3 (Homo sapiens) (UniProt P49761); conditions: Compound concentration 100.0 nM
[7] = molecular target: Macrophage colony-stimulating factor 1 receptor (Homo sapiens) (UniProt P07333); conditions: Compound concentration 100.0 nM
[8] = molecular target: Dual specificity tyrosine-phosphorylation-regulated kinase 1A (Homo sapiens) (UniProt Q13627); conditions: Compound concentration 100.0 nM
[9] = molecular target: Mitogen-activated protein kinase 4 (Homo sapiens) (UniProt P31152); conditions: Compound concentration 100.0 nM
[10] = test system: Receptor-type tyrosine-protein kinase FLT3 (Homo sapiens), P36888 [R834Q]; conditions: Compound concentration 100.0 nM
[11] = molecular target: Receptor-type tyrosine-protein kinase FLT3 (Homo sapiens) (UniProt P36888); conditions: Compound concentration 100.0 nM
[12] = test system: eIF-2-alpha kinase GCN2 (Homo sapiens), Q9P2K8 [S808G]; conditions: Compound concentration 100.0 nM
[13] = test system: Mast/stem cell growth factor receptor Kit (Homo sapiens), P10721 [D816V]; conditions: Compound concentration 100.0 nM
[14] = molecular target: Tyrosine-protein kinase Lyn (Homo sapiens) (UniProt P07948); conditions: Compound concentration 100.0 nM
[15] = test system: Hepatocyte growth factor receptor (Homo sapiens), P08581 [Y1235D]; conditions: Compound concentration 100.0 nM
[16] = molecular target: Misshapen-like kinase 1 (Homo sapiens) (UniProt Q8N4C8); conditions: Compound concentration 100.0 nM
[17] = molecular target: Serine/threonine-protein kinase PAK 2 (Homo sapiens) (UniProt Q13177); conditions: Compound concentration 100.0 nM
[18] = molecular target: Serine/threonine-protein kinase PAK 6 (Homo sapiens) (UniProt Q9NQU5); conditions: Compound concentration 100.0 nM
[19] = molecular target: T1, Protein kinase C iota type (Homo sapiens) (UniProt P41743); conditions: Compound concentration 100.0 nM
T1 sequence (whole entry): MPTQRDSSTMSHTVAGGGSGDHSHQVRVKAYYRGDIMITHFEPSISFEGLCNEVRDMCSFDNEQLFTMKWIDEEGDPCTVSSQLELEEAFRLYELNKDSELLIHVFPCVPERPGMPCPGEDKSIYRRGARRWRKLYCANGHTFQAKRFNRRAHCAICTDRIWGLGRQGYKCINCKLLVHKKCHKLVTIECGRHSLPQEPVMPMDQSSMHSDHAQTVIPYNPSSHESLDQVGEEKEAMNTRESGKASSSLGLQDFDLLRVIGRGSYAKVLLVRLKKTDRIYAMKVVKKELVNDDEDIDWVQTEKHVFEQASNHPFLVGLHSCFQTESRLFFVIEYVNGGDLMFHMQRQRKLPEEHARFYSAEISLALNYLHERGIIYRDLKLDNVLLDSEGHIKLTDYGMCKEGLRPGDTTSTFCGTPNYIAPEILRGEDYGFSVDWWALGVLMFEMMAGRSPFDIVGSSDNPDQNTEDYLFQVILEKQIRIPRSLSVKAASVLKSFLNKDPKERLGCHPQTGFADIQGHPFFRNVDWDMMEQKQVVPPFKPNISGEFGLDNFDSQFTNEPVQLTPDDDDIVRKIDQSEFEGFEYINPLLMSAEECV

[20] = molecular target: T2, Serine/threonine-protein kinase D2 (Homo sapiens) (UniProt Q9BZL6); conditions: Compound concentration 100.0 nM
T2 sequence (whole entry): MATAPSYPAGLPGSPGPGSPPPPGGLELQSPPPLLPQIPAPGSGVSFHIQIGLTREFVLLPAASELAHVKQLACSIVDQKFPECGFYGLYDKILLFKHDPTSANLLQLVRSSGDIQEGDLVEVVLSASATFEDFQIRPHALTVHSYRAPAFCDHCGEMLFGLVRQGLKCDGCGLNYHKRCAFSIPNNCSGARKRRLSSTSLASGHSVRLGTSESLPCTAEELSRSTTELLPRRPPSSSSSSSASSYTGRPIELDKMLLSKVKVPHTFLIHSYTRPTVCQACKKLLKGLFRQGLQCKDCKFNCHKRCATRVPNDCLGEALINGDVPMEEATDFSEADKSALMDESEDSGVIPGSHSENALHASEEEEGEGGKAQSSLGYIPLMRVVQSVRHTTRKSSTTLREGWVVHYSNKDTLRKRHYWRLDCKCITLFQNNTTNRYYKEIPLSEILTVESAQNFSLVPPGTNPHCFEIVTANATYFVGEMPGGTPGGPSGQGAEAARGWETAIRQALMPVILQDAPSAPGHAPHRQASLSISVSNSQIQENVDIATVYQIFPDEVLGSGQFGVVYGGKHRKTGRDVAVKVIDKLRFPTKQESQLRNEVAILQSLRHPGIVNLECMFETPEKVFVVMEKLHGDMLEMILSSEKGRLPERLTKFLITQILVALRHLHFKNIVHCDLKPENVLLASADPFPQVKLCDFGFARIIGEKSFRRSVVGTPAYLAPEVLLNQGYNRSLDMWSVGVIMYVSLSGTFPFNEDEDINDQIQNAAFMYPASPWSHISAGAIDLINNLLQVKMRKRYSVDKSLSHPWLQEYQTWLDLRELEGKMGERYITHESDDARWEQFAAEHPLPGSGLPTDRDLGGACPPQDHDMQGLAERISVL

[21] = molecular target: Interferon-induced, double-stranded RNA-activated protein kinase (Homo sapiens) (UniProt P19525); conditions: Compound concentration 100.0 nM
[22] = molecular target: SRSF protein kinase 3 (Homo sapiens) (UniProt Q9UPE1); conditions: Compound concentration 100.0 nM
[23] = molecular target: Testis-specific serine/threonine-protein kinase 3 (Homo sapiens) (UniProt Q96PN8); conditions: Compound concentration 100.0 nM
[24] = molecular target: Serine/threonine-protein kinase 32C (Homo sapiens) (UniProt Q86UX6); conditions: Compound concentration 100.0 nM
[25] = molecular target: Histamine H2 receptor (Homo sapiens) (UniProt P25021); conditions: Compound concentration 10.0 uM
Chain of Histamine H2 receptor (Homo sapiens) (P25021 whole entry): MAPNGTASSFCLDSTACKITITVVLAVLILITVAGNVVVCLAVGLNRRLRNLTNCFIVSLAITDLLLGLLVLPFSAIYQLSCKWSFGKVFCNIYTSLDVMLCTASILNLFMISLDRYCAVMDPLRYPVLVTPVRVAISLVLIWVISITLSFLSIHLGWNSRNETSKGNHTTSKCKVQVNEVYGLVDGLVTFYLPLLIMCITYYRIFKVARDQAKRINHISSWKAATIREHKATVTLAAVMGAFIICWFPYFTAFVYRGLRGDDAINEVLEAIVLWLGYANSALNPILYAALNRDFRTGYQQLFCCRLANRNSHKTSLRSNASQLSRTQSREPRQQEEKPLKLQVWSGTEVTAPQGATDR

Chain of Serine/threonine-protein kinase PAK 2 (Homo sapiens) (Q13177 whole entry): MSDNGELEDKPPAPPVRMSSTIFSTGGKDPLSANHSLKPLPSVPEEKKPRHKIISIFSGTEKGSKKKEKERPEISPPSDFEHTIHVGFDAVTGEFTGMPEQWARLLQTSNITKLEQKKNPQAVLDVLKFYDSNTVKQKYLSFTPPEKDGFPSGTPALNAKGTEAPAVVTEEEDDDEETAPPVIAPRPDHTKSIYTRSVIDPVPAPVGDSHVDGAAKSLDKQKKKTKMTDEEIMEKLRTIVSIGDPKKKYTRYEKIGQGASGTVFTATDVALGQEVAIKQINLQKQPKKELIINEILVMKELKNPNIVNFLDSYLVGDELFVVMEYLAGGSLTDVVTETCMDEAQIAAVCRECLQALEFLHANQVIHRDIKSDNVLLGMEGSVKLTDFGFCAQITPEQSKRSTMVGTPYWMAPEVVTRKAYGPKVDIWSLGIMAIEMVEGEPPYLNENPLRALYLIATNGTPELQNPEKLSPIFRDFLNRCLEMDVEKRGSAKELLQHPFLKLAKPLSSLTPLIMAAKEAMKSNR
Chain of Cyclin-dependent kinase 9 (Homo sapiens) (P50750 whole entry): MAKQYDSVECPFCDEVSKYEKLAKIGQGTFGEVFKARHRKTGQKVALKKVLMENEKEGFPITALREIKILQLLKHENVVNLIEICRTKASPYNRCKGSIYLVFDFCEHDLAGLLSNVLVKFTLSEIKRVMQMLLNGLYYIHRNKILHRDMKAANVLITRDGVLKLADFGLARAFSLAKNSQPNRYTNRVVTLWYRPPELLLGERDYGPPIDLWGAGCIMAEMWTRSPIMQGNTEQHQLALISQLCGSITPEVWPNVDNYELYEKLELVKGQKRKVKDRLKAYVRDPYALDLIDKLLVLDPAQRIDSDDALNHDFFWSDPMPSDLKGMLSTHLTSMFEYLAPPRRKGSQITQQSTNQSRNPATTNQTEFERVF
Chain of 5'-AMP-activated protein kinase catalytic subunit alpha-2 (Homo sapiens) (P54646 whole entry, looked up): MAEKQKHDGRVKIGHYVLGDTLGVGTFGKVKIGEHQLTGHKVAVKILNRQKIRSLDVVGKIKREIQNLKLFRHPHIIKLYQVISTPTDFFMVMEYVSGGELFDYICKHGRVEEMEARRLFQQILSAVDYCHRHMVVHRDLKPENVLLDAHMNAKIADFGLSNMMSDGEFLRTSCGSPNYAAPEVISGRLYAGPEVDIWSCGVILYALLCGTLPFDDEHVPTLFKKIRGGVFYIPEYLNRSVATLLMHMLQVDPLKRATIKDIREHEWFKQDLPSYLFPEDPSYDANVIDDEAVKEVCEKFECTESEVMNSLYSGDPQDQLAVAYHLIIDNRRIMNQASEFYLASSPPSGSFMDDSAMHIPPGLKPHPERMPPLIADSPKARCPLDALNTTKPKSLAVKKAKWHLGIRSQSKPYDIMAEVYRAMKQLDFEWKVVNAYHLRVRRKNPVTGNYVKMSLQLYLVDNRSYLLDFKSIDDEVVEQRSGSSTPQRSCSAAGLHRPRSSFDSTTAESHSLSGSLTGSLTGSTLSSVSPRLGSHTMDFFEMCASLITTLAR
Chain of Misshapen-like kinase 1 (Homo sapiens) (Q8N4C8 whole entry, looked up): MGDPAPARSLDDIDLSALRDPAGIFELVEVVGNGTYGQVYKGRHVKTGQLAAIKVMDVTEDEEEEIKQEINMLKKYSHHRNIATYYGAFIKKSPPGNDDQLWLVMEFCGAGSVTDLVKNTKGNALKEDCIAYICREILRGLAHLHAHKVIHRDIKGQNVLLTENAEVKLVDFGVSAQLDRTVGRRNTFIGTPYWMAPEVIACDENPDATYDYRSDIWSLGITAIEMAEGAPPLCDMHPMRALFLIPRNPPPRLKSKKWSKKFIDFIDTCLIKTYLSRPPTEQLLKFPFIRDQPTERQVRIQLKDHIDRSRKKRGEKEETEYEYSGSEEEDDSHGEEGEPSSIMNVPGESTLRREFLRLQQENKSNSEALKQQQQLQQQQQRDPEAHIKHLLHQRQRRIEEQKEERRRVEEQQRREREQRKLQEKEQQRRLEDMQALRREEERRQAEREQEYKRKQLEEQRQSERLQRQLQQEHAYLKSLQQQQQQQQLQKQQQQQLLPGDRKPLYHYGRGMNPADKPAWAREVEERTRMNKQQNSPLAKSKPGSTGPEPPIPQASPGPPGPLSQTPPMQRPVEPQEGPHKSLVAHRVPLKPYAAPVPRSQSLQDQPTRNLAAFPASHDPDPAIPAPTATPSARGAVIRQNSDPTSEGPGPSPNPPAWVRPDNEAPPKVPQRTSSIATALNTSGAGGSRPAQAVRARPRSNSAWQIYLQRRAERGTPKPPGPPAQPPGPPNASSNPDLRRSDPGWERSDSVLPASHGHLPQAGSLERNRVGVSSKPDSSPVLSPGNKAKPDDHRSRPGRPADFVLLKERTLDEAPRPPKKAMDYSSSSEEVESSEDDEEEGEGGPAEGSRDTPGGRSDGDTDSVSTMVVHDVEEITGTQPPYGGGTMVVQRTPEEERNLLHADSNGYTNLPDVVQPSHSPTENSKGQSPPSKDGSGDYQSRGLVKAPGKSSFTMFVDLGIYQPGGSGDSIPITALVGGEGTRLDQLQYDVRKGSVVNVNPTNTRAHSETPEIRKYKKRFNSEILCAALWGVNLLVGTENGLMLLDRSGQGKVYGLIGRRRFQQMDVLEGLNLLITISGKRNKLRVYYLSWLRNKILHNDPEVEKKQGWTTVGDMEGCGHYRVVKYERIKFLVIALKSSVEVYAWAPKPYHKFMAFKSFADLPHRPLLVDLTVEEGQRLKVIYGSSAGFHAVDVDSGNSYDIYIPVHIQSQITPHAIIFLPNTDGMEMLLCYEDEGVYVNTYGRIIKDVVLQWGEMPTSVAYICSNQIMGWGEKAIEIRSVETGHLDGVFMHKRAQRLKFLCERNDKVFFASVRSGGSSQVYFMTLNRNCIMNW
Chain of Interferon-induced, double-stranded RNA-activated protein kinase (Homo sapiens) (P19525 whole entry): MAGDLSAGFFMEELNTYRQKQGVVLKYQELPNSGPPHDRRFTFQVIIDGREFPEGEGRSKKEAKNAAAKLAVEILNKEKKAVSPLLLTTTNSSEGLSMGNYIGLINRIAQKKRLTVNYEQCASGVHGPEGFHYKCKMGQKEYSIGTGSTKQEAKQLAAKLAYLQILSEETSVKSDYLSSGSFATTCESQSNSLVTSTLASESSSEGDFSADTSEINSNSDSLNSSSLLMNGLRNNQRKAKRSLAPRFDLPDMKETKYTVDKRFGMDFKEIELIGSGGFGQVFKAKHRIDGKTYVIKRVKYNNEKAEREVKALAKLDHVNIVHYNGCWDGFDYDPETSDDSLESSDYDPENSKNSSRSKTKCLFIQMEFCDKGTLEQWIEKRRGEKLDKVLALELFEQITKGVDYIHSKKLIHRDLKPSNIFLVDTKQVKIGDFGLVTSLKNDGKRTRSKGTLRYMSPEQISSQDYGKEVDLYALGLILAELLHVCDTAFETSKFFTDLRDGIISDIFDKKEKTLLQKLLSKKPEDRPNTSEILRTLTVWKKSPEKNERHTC
Chain of Serine/threonine-protein kinase 32C (Homo sapiens) (Q86UX6 whole entry): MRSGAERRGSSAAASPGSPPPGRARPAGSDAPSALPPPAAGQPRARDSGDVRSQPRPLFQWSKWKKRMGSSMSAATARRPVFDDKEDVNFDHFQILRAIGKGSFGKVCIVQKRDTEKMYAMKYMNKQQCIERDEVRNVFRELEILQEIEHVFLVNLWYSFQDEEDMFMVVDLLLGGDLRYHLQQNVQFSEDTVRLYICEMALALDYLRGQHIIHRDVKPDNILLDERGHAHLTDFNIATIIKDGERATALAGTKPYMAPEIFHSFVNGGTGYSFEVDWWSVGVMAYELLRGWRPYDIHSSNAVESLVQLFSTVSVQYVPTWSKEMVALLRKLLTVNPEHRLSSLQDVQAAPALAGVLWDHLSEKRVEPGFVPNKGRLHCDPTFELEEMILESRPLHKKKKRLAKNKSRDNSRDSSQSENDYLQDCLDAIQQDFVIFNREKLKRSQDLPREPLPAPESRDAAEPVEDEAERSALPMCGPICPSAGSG
Chain of Cyclin-dependent kinase-like 1 (Homo sapiens) (Q00532 whole entry): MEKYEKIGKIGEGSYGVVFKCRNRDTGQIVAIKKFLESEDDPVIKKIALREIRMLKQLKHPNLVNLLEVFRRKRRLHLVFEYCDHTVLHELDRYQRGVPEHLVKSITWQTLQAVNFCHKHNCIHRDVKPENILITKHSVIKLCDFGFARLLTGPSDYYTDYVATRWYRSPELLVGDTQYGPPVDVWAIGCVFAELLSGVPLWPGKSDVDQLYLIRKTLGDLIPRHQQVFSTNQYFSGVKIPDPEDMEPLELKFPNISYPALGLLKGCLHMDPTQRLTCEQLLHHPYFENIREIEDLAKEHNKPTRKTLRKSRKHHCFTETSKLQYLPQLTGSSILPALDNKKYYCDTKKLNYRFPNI
Chain of Cyclin-dependent kinase 5 (Homo sapiens) (Q00535 whole entry, looked up): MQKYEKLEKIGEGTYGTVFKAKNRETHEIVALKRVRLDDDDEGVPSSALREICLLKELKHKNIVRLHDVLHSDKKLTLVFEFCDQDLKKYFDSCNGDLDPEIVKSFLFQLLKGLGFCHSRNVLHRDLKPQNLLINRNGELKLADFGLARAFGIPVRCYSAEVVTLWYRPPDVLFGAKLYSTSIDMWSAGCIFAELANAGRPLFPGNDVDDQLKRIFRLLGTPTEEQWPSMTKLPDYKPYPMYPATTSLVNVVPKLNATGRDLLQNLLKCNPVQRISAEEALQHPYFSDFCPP

Cc1c[nH]c2nccc(Oc3c(F)cc(Nc4cc(Cl)nc(N)n4)cc3F)c12 [BAY-549]
inactive: residual activity [1] 89% | residual activity [2] 98% | residual activity [3] 94% | residual activity [4] 78% | residual activity [5] 100% | residual activity [6] 91% | residual activity [7] 100% | residual activity [8] 88% | residual activity [9] 81% | residual activity [10] 85% | residual activity [11] 75% | residual activity [12] 100% | residual activity [13] 100% | residual activity [14] 81% | residual activity [15] 88% | residual activity [16] 100% | residual activity [17] 99% | residual activity [18] 82% | residual activity [19] 100% | residual activity [20] 94% | residual activity [21] 100% | residual activity [22] 100% | residual activity [23] 100% | residual activity [24] 93% | inhibition [25] 23.7%

Cn1cc(Cl)c2c(Oc3c(F)cc(Nc4cc(Cl)nc(N)n4)cc3F)ccnc21 [BAY-4900]
inactive: residual activity [1] 97% | residual activity [2] 100% | residual activity [3] 100% | residual activity [4] 100% | residual activity [5] 100% | residual activity [6] 91% | residual activity [7] 93% | residual activity [8] 98% | residual activity [9] 100% | residual activity [10] 83% | residual activity [11] 83% | residual activity [12] 100% | residual activity [13] 97% | residual activity [14] 99% | residual activity [15] 91% | residual activity [16] 93% | residual activity [17] 100% | residual activity [18] 100% | residual activity [19] 100% | residual activity [20] 91% | residual activity [21] 100% | residual activity [22] 100% | residual activity [23] 100% | residual activity [24] 100% | inhibition [25] 16.7%
